Results from patent publication US20060003907A1, “Detergent composition with benefit agents” (Unilever Home & Personal Care USA, Division of Conopco, Inc., priority 2003, published 2006).

Experiments:
[1] = Turbidity of 1% ACH solution at varying alkalinity (nephelometric turbidimeter); format: physicochemical; settings: 1% solution of ACH
Description: A 1% solution of ACH having initial pH of 4.6 was subjected to varying alkalinity by using sodium hydroxide solution, and the turbidity of the solution was measured at varying pH levels using a nephelometric turbidimeter.

[2] = pH and turbidity of 1% soap solution after adding ACH directly or through water-in-oil emulsion; format: physicochemical; settings: 60 mg ACH directly added to 1% soap solution (Control)
Description: A 1% soap solution was prepared by dissolving the soap in distilled water at 70° C., and then cooling the solution to ambient temperature. The formulation of the soap used is given below: […]
To ascertain the stability of the ACH incorporated in the dispersed phase such as the water-in-oil emulsion in accordance with the invention prepared under Example 2b, the soap solution obtained under Example 2a was used, and the effect of direct addition of ACH and the ACH in the water-in-oil emulsion (Example 2b) of the invention was studied.
For the purpose of the above study, two separate batches of the same soap solution of Example 2a was taken. In one batch 60 mg ACH was directly added, and in the other batch 100 mg ACH was added through the water-in-oil emulsion system as per Example 2b above. The pH levels and the turbidity of the respective solutions containing the active ACH directly introduced (Control) and the active ACH in the water-in-oil emulsion (Example 2b) were measured, and the results are reproduced hereunder in Table II.

Aluminum Chlorohydrate [ACH]
Turbidity ([1]; pH 4.6 (initial pH)): 1.3 NTU | Turbidity ([1]; pH 5.7 (sodium hydroxide)): 2.6 NTU | Turbidity ([1]; pH 7.5 (sodium hydroxide)): 504 NTU | Turbidity ([1]; pH 9.6 (sodium hydroxide)): 522 NTU | Turbidity ([1]; pH 10.6 (sodium hydroxide)): 884 NTU | pH ([2]; soap solution alone 10.14): 9.89 | Turbidity ([2]; soap solution alone 205): 950
